Experimental data reported in patent US20170050966A1, “INHIBITING THE TRANSIENT RECEPTOR POTENTIAL A1 ION CHANNEL” (HYDRA BIOSCIENCES, INC., priority 2014, published 2017).
Like-named read-outs stand apart in the source and are kept apart here.

Assays:
[1] = molecular target: CYP2D6 (Homo sapiens, UniProt P10635); assay: in vitro; details: probe Dextromethorphan
[2] = molecular target: CYP2C8 (Homo sapiens, UniProt P10632); assay: in vitro; details: probe Amodiaquine
[3] = Plasma protein binding, equilibrium dialysis; format: in vitro ADME; details: pooled K2EDTA plasma, read-out: Mean % Bound ± SD (converted)
Experimental: With this method, free compound is separated from protein-bound compound by dialysis across a semi-permeable membrane.
The protein binding was tested at a concentration of 1 μM. Pooled human, cynomolgus monkey, dog, and rat K2EDTA plasma was thawed and centrifuged at 2000×g for 10 minutes at 4° C. to remove particulates; any lipid on the top of the supernatant was also removed by aspiration. The plasma was warmed to 37° C. for 10 minutes before use. Test compounds were spiked into 2 ml plasma in a polypropylene plate to a final concentration of 1 μM. Triplicate 400 μl aliquots of spiked plasma were transferred into the Thermo RED dialysis units and dialyzed against 600 μl of PBS buffer. […] After 6 hours dialysis, triplicate 50 μl aliquots were removed from the RED plate, matrix-matched with either PBS buffer or blank plasma, as appropriate, and quenched with 4 volumes of ACN containing an internal standard. The extracted samples were then centrifuged at 2000×g for 5 minutes at 4° C. The supernatant (50 μl) was removed and diluted with 100 μl water prior to LC/MS/MS bioanalysis.

[4] = Oral PK and bioavailability of micronized Compound 2 suspension; format: in vivo, dogs (beagles); details: fasted dogs
Experimental: Additional studies were conducted with micronized Compound 2 in rat, dogs (beagles), and cynomolgus monkeys. Animals received a 10 mg/kg dose oral dose of compound formulated as a suspension in 0.5% methyl cellulose in water for injection at a target concentration of 1 mg/mL, and administered a dose volume of 10 mL/kg by oral gavage in rats or fasted dogs and via oral delivery in fasted cynomolgus monkeys. The % F for the rats in these studies was 85%, 36% for the dogs, and 19% for the monkeys. FIG. 11 depicts the pharmacokinetic profile for these species.
Three studies were conducted in dogs (beagles). In one study, three fasted dogs were administered 10 mg/kg of a suspension of micronized Compound 2 by gavage. Blood samples were collected from these dogs before dosing and at 0.25, 0.50, 1, 2, 4, 6, 8, 12, and 24 hours post-administration. Blood samples were analyzed to determine plasma levels of Compound 2 by LC/MS/MS. In subsequent studies, pharmacokinetic (PK) parameters were determined following a single oral dose of suspensions of micronized Compound 2 (recrystallized from ethanol) administered to fasted dogs at dose levels of 10, 100, 300, 600, or 1000 mg/kg. Blood samples were taken before dosing and at 0.5, 1, 2, 4, 8, 12, 24 and 48 hours post-dosing and analyzed to determine plasma levels of Compound 2.

CYP2D6, sequence (P10635 whole entry): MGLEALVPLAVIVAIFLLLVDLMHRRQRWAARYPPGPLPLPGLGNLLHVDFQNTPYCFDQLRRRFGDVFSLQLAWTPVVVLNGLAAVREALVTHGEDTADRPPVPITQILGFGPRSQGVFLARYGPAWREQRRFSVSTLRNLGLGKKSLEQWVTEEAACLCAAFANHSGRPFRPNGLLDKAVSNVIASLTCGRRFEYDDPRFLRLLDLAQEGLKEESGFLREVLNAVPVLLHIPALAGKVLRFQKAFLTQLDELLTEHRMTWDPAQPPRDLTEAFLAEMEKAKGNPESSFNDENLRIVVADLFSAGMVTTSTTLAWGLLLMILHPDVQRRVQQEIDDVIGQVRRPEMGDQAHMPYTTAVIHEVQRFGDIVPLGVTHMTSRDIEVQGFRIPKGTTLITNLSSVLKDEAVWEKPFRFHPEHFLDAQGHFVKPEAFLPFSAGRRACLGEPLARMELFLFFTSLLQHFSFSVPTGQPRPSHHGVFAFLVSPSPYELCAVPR
CYP2C8, sequence (P10632 whole entry): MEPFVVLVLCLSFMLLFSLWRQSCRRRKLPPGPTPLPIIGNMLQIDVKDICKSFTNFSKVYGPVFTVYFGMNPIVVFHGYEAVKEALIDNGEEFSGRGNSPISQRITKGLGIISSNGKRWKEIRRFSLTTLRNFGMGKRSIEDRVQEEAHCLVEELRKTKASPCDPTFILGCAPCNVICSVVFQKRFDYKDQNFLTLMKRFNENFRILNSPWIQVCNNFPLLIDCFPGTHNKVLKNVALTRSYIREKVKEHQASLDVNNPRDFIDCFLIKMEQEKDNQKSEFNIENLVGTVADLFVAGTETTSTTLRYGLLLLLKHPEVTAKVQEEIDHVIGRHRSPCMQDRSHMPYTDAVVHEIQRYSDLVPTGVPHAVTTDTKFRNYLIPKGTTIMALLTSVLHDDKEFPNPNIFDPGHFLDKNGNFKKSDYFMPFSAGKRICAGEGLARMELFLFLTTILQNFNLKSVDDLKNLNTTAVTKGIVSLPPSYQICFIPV

inhibition at 10 µM [1]: 9.5%
inhibition at 10 µM [2]: 3.2%
fraction unbound at 6 h, 1 μM ([3]; Human plasma): 0.015
fraction unbound at 6 h, 1 μM ([3]; Sprague dawley rat plasma): 0.047
bioavailability ([4]; beagle, dog, plasma, 10 mg/kg oral, micronized suspension): 36%
Exposures on an AUC and Cmax basis versus dose ([4]; single oral dose 10 to 1000 mg/kg): increased with doses up to 600 mg/kg
SMILES: C[C@@H](C(=O)Nc1ccnc(-c2cnc(N3CCC[C@H]3C(F)(F)F)nc2)n1)n1cnc2c1c(=O)n(C)c(=O)n2C [Compound 2, (S)-2-(1,3-dimethyl-2,6-dioxo-2,3-dihydro-1H-purin-7(6H)-yl)-N-(2′-((S)-2-(trifluoromethyl)pyrrolidin-1-yl)-[2,5′-bipyrimidin]-4-yl)propanamide]
